The record followed here is US20050059585A1, “Methionine aminopeptidase-2 inhibitors and methods of use thereof” (Praecis Pharmaceuticals Inc., priority 2000, published 2005).

SMILES strings stand for the structures.

Assay type in all cases: cell-based
Assay [1] relates to human umbilical vein endothelial cells (HUVEC). The assay can be described thus: human endothelial cell growth assay (Huvec assay). Conditions: Homo sapiens, HUVEC; read-out: IC50 (pM), Huvec Assay. Here is the method:
For the human endothelial cell growth assay, human umbilical vein endothelial cells (HUVEC) were maintained in Clonetics endothelial growth medium (EGM) in a 37° C. humidified incubator. Cells were detached with trypsin and pelleted by centrifugation at 300×g for 5 minutes at room temperature. HUVEC were added to 96-well plates at 5,000 cells/well. After incubating for 6 hours, the medium was replaced with 0.2 ml fresh EGM supplemented with 0.5 nM bFGF and the desired concentration of test angiogenesis inhibitor compound. Test angiogenesis inhibitor compounds were initially dissolved in ethanol at stock concentrations of either 10 mM or 0.1 mM, and subsequently diluted in EGM to obtain concentrations from […] to 10 μM. After 48 hours at 37° C., the medium was replaced with fresh bFGF-supplemented EGM and test angiogenesis inhibitor compound. Following incubation for an additional 48 hours at 37° C. MTT (3-[4,5-dimethylthiazol-2-yl]-2,5-diphenyl-tetrazolium bromide) was added to 1 mg/ml. After 2-4 hours at 37° C. the medium was replaced with 0.1 ml/well isopropanol. The plates were placed on a shaker for 15 minutes at room temperature and analyzed in a Labsystems Multiskan plate spectrophotometer at an optical density of 570 nm.

The subject of assay [2] is ST486. Description: Inhibition of GC derived B cell lymphoma lines in culture.
In assay [3] the test system is EKVX. The assay can be described thus: tumor cell line panel, SRB growth assay. To be noted: Homo sapiens, Non-Small Cell Lung, 48 hours. How it is done:
(§1) The compound of example 5 was also evaluated against a panel of cancer cell lines (Alley, M.C. et al. […] Cancer Research 48: 589-601; Grever, M. R., et al. (1992) Seminars in Oncology, Vol. 19, No. 6, pp 622-638; Boyd, M. R., and Paull, K. D. (1995) Drug Development Research 34: 91-109). The human tumor cell lines of the cancer screening panel were grown in RPMI 1640 medium containing 5% fetal bovine serum and 2 mM L-glutamine. Cells were inoculated into 96 well microtiter plates in 100 μL at plating densities ranging from 5,000 to 40,000 cells/well depending on the doubling time of individual cell lines. After cell inoculation, the microtiter plates were incubated at 37° C., 5 % CO2, 95 % air and 100 % relative humidity for 24 hours prior to addition of experimental drugs.
(§2) After the 24 hour incubation period, two plates of each cell line were fixed in situ with TCA, to represent a measurement of the cell population for each cell line at the time of drug addition (Tz). Experimental drugs were solubilized in dimethyl sulfoxide at 400-fold the desired final maximum test concentration and stored frozen prior to use. At the time of drug addition, an aliquot of frozen concentrate was thawed and diluted to twice the desired final maximum test concentration with complete medium containing 50 μg/ml gentamicin. Additional four, 10-fold or ½ log serial dilutions were made to provide a total of five drug concentrations plus control. Aliquots of 100 μl of these different drug dilutions were added to the appropriate microtiter wells already containing 100 μl of medium, resulting in the required final drug concentrations.
(§3) Following drug addition, the plates were incubated for an additional 48 hours at 37° C., 5 % CO2, 95 % air, and 100 % relative humidity. For adherent cells, the assay was terminated by the addition of cold TCA. Cells were fixed in situ by the gentle addition of 50 μl of cold 50 % (w/v) TCA (final concentration, 10% TCA) and incubated for 60 minutes at 4° C. The supernatant was discarded, and the plates were washed five times with tap water and air dried. Sulforhodamine B (SRB) solution (100 μl) at 0.4 % (w/v) in 1 % acetic acid were added to each well, and plates were incubated for 10 minutes at room temperature. After staining, unbound dye was removed by washing five times with 1 % acetic acid and the plates were air dried. Bound stain was subsequently solubilized with 10 mM trizma base, and the absorbance was read on an automated plate reader at a wavelength of 515 nm. For suspension of the cells, the methodology used was the same except that the assay was terminated by fixing settled cells at the bottom of the wells by gently adding 50 μl of 80 % TCA (final concentration, 16% TCA). Using the seven absorbance measurements [time zero, (Tz), control growth, (C), and test growth in the presence of drug at the five concentration levels (Ti)], the percentage growth was calculated at each of the drug concentrations levels.
(§4) Percentage growth inhibition was calculated as: [(Ti−Tz)/(C−Tz)]×100 for concentrations for which Ti>/=Tz [(Ti−Tz)/Tz]×100 for concentrations for which Ti<Tz.
(§5) Growth inhibition of 50% (GI50) was calculated from [(Ti−Tz)/(C−Tz)]×100=50, which is the drug concentration resulting in a 50% reduction in the net protein increase (as measured by SRB staining) in control cells during the drug incubation. The G150 was calculated for each of the cell lines if the level of activity is reached; however, if the effect was not reached or is exceeded, the value for that parameter is expressed as greater or less than the maximum (10^−4 M) or minimum (10^−8 M) concentration tested.

Assay [4] concerns UACC-62. The assay can be described thus: tumor cell line panel, SRB growth assay. Conditions: Homo sapiens; UACC-62, Melanoma, 48 hours. Here is the method: as §1, §2, §3, §4, §5
Assay [5] relates to HOP-62. Description: tumor cell line panel, SRB growth assay. Conditions: Homo sapiens; HOP-62, Non-Small Cell Lung, 48 hours. How it is done:
as §1, §2, §3, §4, §5

The test system of assay [6] is HT29. The assay can be described thus: tumor cell line panel, SRB growth assay. Conditions: Homo sapiens, HT-29; HT29, Colon, 48 hours. Here is the method:
as §1, §2, §3, §4, §5

Assay [7] concerns COLO 205. Description: tumor cell line panel, SRB growth assay. To be noted: Homo sapiens; COLO 205, Colon, 48 hours. How it is done: as §1, §2, §3, §4, §5
Assay [8] has as its system SNB-19. The assay can be described thus: tumor cell line panel, SRB growth assay. Conditions: Homo sapiens; SNB-19, CNS, 48 hours. Here is the method: as §1, §2, §3, §4, §5
The subject of assay [9] is MDA-MB-231/ATCC. The assay can be described thus: tumor cell line panel, SRB growth assay. Conditions: Homo sapiens, Breast, 48 hours. Here is the method: as §1, §2, §3, §4, §5
In assay [10] the test system is HS 578T. The assay can be described thus: tumor cell line panel, SRB growth assay. Conditions: Homo sapiens, Breast, 48 hours. Here is the method: as §1, §2, §3, §4, §5
Assay [11] deals with SK-MEL-5. Description: tumor cell line panel, SRB growth assay. To be noted: Homo sapiens; SK-MEL-5, Melanoma, 48 hours. Here is the method: as §1, §2, §3, §4, §5
The subject of assay [12] is IGR-OV1. The assay can be described thus: tumor cell line panel, SRB growth assay. To be noted: Homo sapiens, IGROV-1; IGR-OV1, Ovarian, 48 hours. Here is the method: as §1, §2, §3, §4, §5
Assay [13] relates to 786-0. The assay can be described thus: tumor cell line panel, SRB growth assay. To be noted: Homo sapiens; 786-0, Renal, 48 hours. Here is the method: as §1, §2, §3, §4, §5
The test system of assay [14] is RXF 393. The assay can be described thus: tumor cell line panel, SRB growth assay. Conditions: Homo sapiens; RXF 393, Renal, 48 hours. How it is done: as §1, §2, §3, §4, §5

As to `CO[C@@H]1[C@H](OC(=O)N[C@@H](C(N)=O)C(C)C)CC[C@]2(CO2)[C@H]1[C@@]1(C)O[C@@H]1CC=C(C)C` [Example 5, (1-Carbamoyl-2-methyl-propyl)-carbamic acid-(3R, 4S, 5S, 6R )-5-methoxy-4-[(2R, 3R)-2-methyl-3-(3-methyl-but-2-enyl)-oxiranyl]-1-oxa-spiro[2.5]oct-6-yl ester], the IC50 in assay [1] was 93 pM. Moreover, the GI50 was 0.22 nM in [2] (Homo sapiens, ST486, read-out: Growth Inhibition Relative to Vehicle Control, GI50%); 20800 nM in assay [3]; under 10 nM in [4]; under 10 nM in [5]; 16100 nM in [6]; under 10 nM in assay [7]. Also, the GI50 in [8] is under 10 nM; in assay [9], under 10 nM; in [10], 1150 nM; in assay [11] it was over 100000 nM; in assay [12], under 10 nM; in [13] it was 16100 nM. Further, the GI50 in [14] is 40200 nM. The “Growth Inhibition Relative to Vehicle Control, Maximum Inhibition” value in assay [2] (ST486, BL, 0.01-100 nM, five or six days) is on record as 53%.
